“Also recorded” adds a separate entry of the source. Like-named read-outs stand apart in the source and are kept apart here. Each block holds one compound with its values, some of them ahead of it. Where a SMILES comes first, the peptide text is derived from it. Where no end group is shown, it is not given here. [ ]: non-standard residue; d: D form. The star is where a group is joined. Biotin = O=C1N[C@H]2[C@H](CS[C@H]2CCCCC(=O)*)N1; βAla = NCCC(=O)O
Assays:
[1] = test system: DO11.10 cells; assay: Antigen presentation by F2-IA^d vascular endothelial cells (CD69 expression by DO11.10 cells); format: cell-based, mouse
Method: EL4 cells were first opsonized with RGD peptide. Next, 5 mg/ml OVA protein was loaded on the cytoplasm by osmotic pressure loading. After sufficient washing, 2×10^6 EL4 cells were added to a confluent culture medium of F2-IA^d cells on a 24-well plate (cultured for 2 days in advance in the presence of 500 U/ml rmIFN-γ). As a control, EL4 and EG7 mock-loaded with PBS were RGD-modified in the same manner and used. EL4 and other target cells were added to F2-IA^d, and the cell mixture was cultured for 24 hr. As for the control well wherein F2-IA^d cells were directly loaded with OVAII peptide, the cells were pulsed with peptide for 2 hr at the end of the culture. After removing the non-adherent cells and debris of dead cells, the surface of the adhered F2-IA^d cells was sufficiently washed. In an antigen presentation inhibitory experiment using chloroquine, 100 μM chloroquine was added 30 min before addition of EL4, EL4 loaded with OVA or 0.25 mg/ml OVA protein. Furthermore, F2-IA^d cells were cultured for 3 days in the continuous presence of chloroquine.
Whether the F2-IA^d cells presented the target antigen polypeptide on the cell surface was evaluated by monitoring the expression of CD69 by DO11.10 cells. The antigen-presenting F2-IA^d cells and DO11.10 cells were mixed and centrifuged to contact the cells with one another. After 6 hr and 24 hr, the cells were stained with biotin-labeled anti CD69 mAb (H1.2F3, BD Biosciences), and the expression of CD69 by DO11.10 cells was detected by flow cytometry (stained positive with FITC-labeled KJ1.26 (anti clonotypic TCR mAb)).

[2] = test system: serum peptidase; assay: Degradation of peptide in 10% fresh mouse serum (HPLC of remaining peptide); conditions: for digestion resistance to serum peptidases (in words): up to 16 hr (FIG. 21)
Method: (§1) Peptide was digested in TBS containing 10% fresh mouse serum or fresh human serum. After incubation at 37° C. for a given time, 1% trifluoro acid was added to remove various serum proteins by precipitation. After short centrifugation, the soluble fraction was analyzed by reversed-phase HPLC using a C18 analysis column. To normalize variation in the total amount of the peptide loaded for each HPLC, the peak of non-protein components contained in the serum, which is absorbed at the wavelength of 220 nm, was used as an internal control. The peak area of undigested peptides was quantitatively monitored by Chromatopac C-R8A (Shimadzu Corp., Kyoto, Japan), and the amount of the remaining peptide was calculated.
(§2) Therefore, the inventor examined the digestion resistance of peptide in vitro in a 10% fresh mouse serum. The amount of a remaining undigested peptide was quantified by HPLC.

[3] = TBS containing 10% fresh mouse serum; conditions: 37° C., up to 16 hr
[4] = test system: EG7 tumor; assay: Antitumor activity by in vivo immunization with OVA-derived peptides (EL4 / EG7 tumor); conditions: CBF1 mouse, peptide-loaded LPS blast i.p. 3 times; EL4 / EG7 tumor (FIG. 8)
Description: CBF1 mouse was immunized with LPS blast of splenocyte pulsed with either λ repressor peptide ([…]; SEQ ID NO: 39) or OVAII peptide as a Th epitope peptide, and K^b-binding OVA-I peptide, which is a CTL inducing peptide. LPS blast derived from one spleen was pulsed with peptide, and intraperitoneally injected to immunize two mice. The next day of the third immunization, 9×10^6 EL4 cells and 1.2×10^7 EG7 cells were intradermally transplanted in a pair on the back skin of the mice. The tumor size was measured every other day. Immunization was performed once again 2 weeks from the tumor transplantation.
To verify the anti-tumor effect of inducing tumor-specific Th cells in vivo, the inventor compared the immunization protocol that induces 1. CTL alone, 2. CTL and a third party antigen-specific Th cell, and 3. CTL and tumor-specific Th cell. As the antigen presenting cell, LPS blast of spleen cell was used, and the APC loaded with each peptide alone or the mixture of each peptide was injected intraperitoneally 3 times (once per week). On the day of third immunization, 9×10^6 EL4 and 1.2×10^7 EG7 tumor were innoculated on the opposite sides of the back, and the tumor diameter was measured from day 4.

[5] = test system: DO11.10 cells; assay: Growth of CD4 T cells: proliferation of DO11.10 cells by OVII modified peptides (3H-thymidine); format: cell-based, mouse; conditions: for sensitization activity compared to OVII+ (in words): effect of lysine, FIG. 20
[6] = test system: serum peptidase
Method: as §1, §2

[7] = test system: peptidase activity in the serum; assay: Effect of peptidase inhibitor on OVII peptide digestion by mouse serum; format: biochemical; conditions: inhibitor-containing buffer (FIGS. 22-24)
Description: Given the above-mentioned Examples, the inventor examined the effect of peptidase inhibitor on the peptide digestion to identify the peptidase in the serum.

- level of epitope remaining in the serum compared with POVIIPβ ([2]; mouse, serum): almost the same for both peptides
Compound: CC[C@H](C)[C@H](NC(=O)[C@H](CCC(=O)O)NC(=O)[C@H](C)NC(=O)[C@H](Cc1c[nH]cn1)NC(=O)[C@H](C)NC(=O)[C@H](C)NC(=O)[C@H](Cc1c[nH]cn1)NC(=O)[C@@H](NC(=O)[C@H](C)NC(=O)[C@H](CCC(N)=O)NC(=O)[C@H](CO)NC(=O)[C@@H](NC(=O)[C@H](CCCCNC(=O)CCCC[C@@H]1SC[C@@H]2NC(=O)N[C@@H]21)NC(=O)[C@H](CO)NC(=O)[C@@H]1CCCN1)[C@@H](C)CC)C(C)C)C(=O)N[C@@H](CC(N)=O)C(=O)N[C@@H](CCC(=O)O)C(=O)N[C@@H](C)C(=O)N[C@@H](CCCCNC(=O)CCCC[C@@H]1SC[C@@H]2NC(=O)N[C@@H]21)C(=O)N1CCC[C@H]1C(=O)NCCC(=O)O [PbOVIIbPβ] (H-PSK(Biotin)ISQAVHAAHAEINEAK(Biotin)P[βAla]-OH; N-terminus and C-terminus assumed)

- protection of peptide from digestion ([2]; 10% fresh mouse serum, within 4 hr): protects about half of the peptide
Compound: ISQAVHAAHAEINEAPA [OVIIPA]

- cleaved bond [3]: Ser-K, major
- fragment found [3]: product missing one biotin
Compound: SKISQAVHAAHAEINEARK^bioG

- cleaved bond [3]: Ile-S, major
Compound: HELM PEPTIDE1{I.S.Q.A.V.H.A.A.H.A.E.I.N.E.A.P.[bAla]}$$$$V2.0 (N-terminus and C-terminus assumed; SMILES CC[C@H](C)[C@H](N)C(=O)N[C@@H](CO)C(=O)N[C@@H](CCC(N)=O)C(=O)N[C@@H](C)C(=O)N[C@H](C(=O)N[C@@H](Cc1c[nH]cn1)C(=O)N[C@@H](C)C(=O)N[C@@H](C)C(=O)N[C@@H](Cc1c[nH]cn1)C(=O)N[C@@H](C)C(=O)N[C@@H](CCC(=O)O)C(=O)N[C@H](C(=O)N[C@@H](CC(N)=O)C(=O)N[C@@H](CCC(=O)O)C(=O)N[C@@H](C)C(=O)N1CCC[C@H]1C(=O)NCCC(=O)O)[C@@H](C)CC)C(C)C)

- protection of peptide from digestion [6]: protects about half of the peptide
Compound: CC[C@H](C)[C@H](N)C(=O)N[C@@H](CO)C(=O)N[C@@H](CCC(N)=O)C(=O)N[C@@H](C)C(=O)N[C@H](C(=O)N[C@@H](Cc1c[nH]cn1)C(=O)N[C@@H](C)C(=O)N[C@@H](C)C(=O)N[C@@H](Cc1c[nH]cn1)C(=O)N[C@@H](C)C(=O)N[C@@H](CCC(=O)O)C(=O)N[C@H](C(=O)N[C@@H](CC(N)=O)C(=O)N[C@@H](CCC(=O)O)C(=O)N[C@@H](C)C(=O)NCC(=O)NCCC(=O)O)[C@@H](C)CC)C(C)C [OVIIβ] (HELM PEPTIDE1{I.S.Q.A.V.H.A.A.H.A.E.I.N.E.A.G.[bAla]}$$$$V2.0; N-terminus and C-terminus assumed)

- cleaved bond [3]: Ile-S, major
Compound: ISQAVHAAHAEINEAPA

- digestion resistance to serum peptidases (in words) ([2]; 10% fresh mouse serum): further additional protective effect
Compound: CC[C@H](C)[C@H](NC(=O)[C@H](CCC(=O)O)NC(=O)[C@H](C)NC(=O)[C@H](Cc1c[nH]cn1)NC(=O)[C@H](C)NC(=O)[C@H](C)NC(=O)[C@H](Cc1c[nH]cn1)NC(=O)[C@@H](NC(=O)[C@H](C)NC(=O)[C@H](CCC(N)=O)NC(=O)[C@H](CO)NC(=O)[C@@H](NC(=O)[C@H](CO)NC(=O)[C@@H]1CCCN1)[C@@H](C)CC)C(C)C)C(=O)N[C@@H](CC(N)=O)C(=O)N[C@@H](CCC(=O)O)C(=O)N[C@@H](C)C(=O)N1CCC[C@H]1C(=O)NCCC(=O)O [POVIIPβ]

- digestion resistance to serum peptidases (in words) [6]: no digestion resistance
Compound: CC[C@H](C)[C@H](NC(=O)[C@H](CCC(=O)O)NC(=O)[C@H](C)NC(=O)[C@H](Cc1c[nH]cn1)NC(=O)[C@H](C)NC(=O)[C@H](C)NC(=O)[C@H](Cc1c[nH]cn1)NC(=O)[C@@H](NC(=O)[C@H](C)NC(=O)[C@H](CCC(N)=O)NC(=O)[C@H](CO)NC(=O)[C@@H](NC(=O)[C@H](CCCCNC(=O)CCCC[C@@H]1SC[C@@H]2NC(=O)N[C@@H]21)NC(=O)[C@@H](N)CO)[C@@H](C)CC)C(C)C)C(=O)N[C@@H](CC(N)=O)C(=O)N[C@@H](CCC(=O)O)C(=O)N[C@@H](C)C(=O)N[C@@H](CCCNC(=N)N)C(=O)O [bOVII+] (H-SK(Biotin)ISQAVHAAHAEINEAR-OH; N-terminus and C-terminus assumed)

- cleaved bond [3]: A-Arg, major
- fragment found [3]: product missing one biotin
Compound: SK^bioISQAVHAAHAEINEAR (H-SK(Biotin)ISQAVHAAHAEINEAR-OH; N-terminus and C-terminus assumed; SMILES CC[C@H](C)[C@H](NC(=O)[C@H](CCC(=O)O)NC(=O)[C@H](C)NC(=O)[C@H](Cc1c[nH]cn1)NC(=O)[C@H](C)NC(=O)[C@H](C)NC(=O)[C@H](Cc1c[nH]cn1)NC(=O)[C@@H](NC(=O)[C@H](C)NC(=O)[C@H](CCC(N)=O)NC(=O)[C@H](CO)NC(=O)[C@@H](NC(=O)[C@H](CCCCNC(=O)CCCC[C@@H]1SC[C@@H]2NC(=O)N[C@@H]21)NC(=O)[C@@H](N)CO)[C@@H](C)CC)C(C)C)C(=O)N[C@@H](CC(N)=O)C(=O)N[C@@H](CCC(=O)O)C(=O)N[C@@H](C)C(=O)N[C@@H](CCCNC(=N)N)C(=O)O)

- cleaved bond [3]: A-R, major
- fragment found [3]: product missing one biotin
Compound: SK^bioISQAVHAAHAEINEARK^bio

The remaining lines, values behind:

Compound: CCN(CC)CCCC(C)Nc1ccnc2cc(Cl)ccc12 (centres unmarked) [chloroquine]
- antigen presentation of OVA-loaded EL4 by F2-IA^d cells ([1]; 100 μM chloroquine (FIG. 4)): sensitive to chloroquine
- presentation of OVA protein by F2-IA^d cells ([1]; 100 μM chloroquine (FIGS. 3, 4)): decreased

Compound: PSK^bioISQAVHAAHAEINEARK^bioPβA
- fragment found [3]: product which has lost the biotin molecule on the N terminal side, major

Compound: OVA-I: K^b-binding OVA-I peptide, which is a CTL inducing peptide (SIINFEKL; UniProt P01012 258-265, looked up, fragment)
- tumor control, CTL-inducing peptide alone [4]: tumor control was only possible to a limited degree

Compound: CC[C@H](C)[C@H](N)C(=O)N[C@@H](CO)C(=O)N[C@@H](CCC(N)=O)C(=O)N[C@@H](C)C(=O)N[C@H](C(=O)N[C@@H](Cc1c[nH]cn1)C(=O)N[C@@H](C)C(=O)N[C@@H](C)C(=O)N[C@@H](Cc1c[nH]cn1)C(=O)N[C@@H](C)C(=O)N[C@@H](CCC(=O)O)C(=O)N[C@H](C(=O)N[C@@H](CC(N)=O)C(=O)N[C@@H](CCC(=O)O)C(=O)N[C@@H](C)C(=O)N1CCC[C@H]1C(=O)NCCC(=O)O)[C@@H](C)CC)C(C)C [OVIIPβ] (HELM PEPTIDE1{I.S.Q.A.V.H.A.A.H.A.E.I.N.E.A.P.[bAla]}$$$$V2.0; N-terminus and C-terminus assumed)
- digestion resistance to serum peptidases (in words) ([2]; 10% fresh mouse serum): the protection effect was further enhanced, and the amount of the peptide remaining 16 hr later increased

Compound: LEDARRLKAIYEKKK [X peptide, third party antigen peptide]
- tumor control, Th peptide together with OVA-I [4]: could delay tumor growth as compared to CTL single induction, but the mouse finally died

Compound: SKISQAVHAAHAEINEARK [KOVII+K]
- sensitization activity compared to OVII+ (in words) [5]: no difference in the sensitization activity compared to OVII+

Compound: CC(C)C[C@H](NC(=O)[C@@H](O)[C@H](N)Cc1ccccc1)C(=O)O [bestatin]
- inhibition of OVII peptide digestion / peptidase activity in serum [7]: about half of the peptidase activity was suppressed

Compound: SK^bioISQAVHAAHAEINEARK^bio (SK(Biotin)ISQAVHAAHAEINEARK(Biotin)) [bOVII+b]
- activity to induce proliferation of DO11.10 Th cell relative to KOVII+ and KOVII+K, respectively ([5]; bOVII+ vs KOVII+, bOVII+b vs KOVII+K (FIG. 20)): about 10 fold
- increase in sensitization activity compared to OVIIβ, OVIIPA ([5]; relative to peptides with Pro at second position from C terminal and/or β-Ala at C terminal (OVIIβ, OVIIPA, FIG. 11)): 100 fold

Compound: SKISQAVHAAHAEINEAR [KOVII+]
- sensitization activity compared to OVII+ (in words) [5]: no difference in the sensitization activity compared to OVII+

Compound: Ac-ISQAVHAAHAEINEA [ac-OVII]
- sensitization activity / Th inducing activity (in words) ([5]; 10% FCS-DMEM, compared to OVII (FIG. 11)): almost no influence on the sensitization activity; also recorded: no difference from OVII
- digestion resistance to serum peptidases (in words) [6]: higher protection effect than the above-mentioned single modification of the C terminal side
